In brackets after ≈: the same amount, converted by molar mass. Read-outs that look alike come from different tables or passages of the source.
Columns and labels:
[1] = BBB penetration, fluorescence microscopy of brain slices; format: in vivo, BALB/c male mice; conditions: iv tail vein 60 mg/kg, 2 hours, coronal cryo-sections, excitation 490 nm, emission 521 nm, n = 5
Description: In vivo experiments were performed on BALB/c male mice weighing between 20 and 30 g (the mouse model is widely used for estimation of drug BBB penetration). The animals (obtained from TAZD-CBU) were kept in a 12-hour day and night cycle at room temperature (20–22 °C), humidity 55–56% and fed with a standard diet and water ad libitum for at least 1 week before the experiment. Body temperature and weight were recorded on a regular daily schedule. It is confirmed that all procedures were carried out according to the guidelines outlined by the European Community Council Directive 2010/63/EEC, and they were approved by the local Ethical Committee Resolution 26/2014 (Bydgoszcz, Poland).
Fl-[Lys^7(PEG4-Van)]TP10 was administered to the mouse (n = 5) tail vein at a dose of 60 mg/kg in a volume of 100 μl of saline.
After 2 hours, the mice were sacrificed (by isoflurane overdose) and their brains were immediately removed from the cranium and cooled to 4 °C. Five, […] coronal cryo-sections of the brain were made starting from the frontal pole and moving to the occipital pole (HM 450 Sliding Microtome). The presence of the compound in question in the brain slices was visualized using a fluorescence microscope (Delta Optical IB-100, Delta Optical, Poland) at a fluorescence excitation and emission of 490 nm and 521 nm, respectively. […]

[2] = test system: Enterococcus faecium 3934825; test: microbe, parasite or virus in culture; format: cell-based
Source text: (§1) Three bacterial strains of MRSA (N315, 12673, 6347) and two of Enterococcus spp. (E. faecium, E. faecalis) were used. With respect to MRSA, N315 represented a reference Van-susceptible strain (GenBank GCA_00000645.1) isolated from a patient while 12673 (Van-intermediately susceptible) and 6347 (a h-VISA which appears at frequency of <10^−5 to 10^−6 is composed of two subpopulations of bacteria: one susceptible and one intermediately resistant)[38] were clinical strains obtained from patients of The Clinical University Centre of Gdańsk (UCK). […] The clinical strain isolates originated from the collection of the Department of Pharmaceutical Technology and Biochemistry, Faculty of Chemistry, Gdańsk University of Technology.
(§2) The strains were grown in Mueller-Hinton broth (MH cation-adjusted, Becton Dickinson) or Brain Heart Infusion broth (BHI, Becton Dickinson), respectively. The cultivation was carried out in an aerobic atmosphere at 37 °C for 24 hours and, afterwards, the bacterial cultures were diluted in geometric progression with a proper broth. Next, 100 µl of each dilution was inoculated in an agar plate and incubated at 37 °C for 24 h. The next procedures included determination of Colony Forming Units (CFU)/ml and minimal inhibitory concentration (MIC) of the compounds in question. The latter procedure was carried out according to the microbroth dilution technique using 96-well plates. The MICs were evaluated by using the metabolic assay based on the resazurin dye. The assay was performed in triplicates.

[3] = test system: Enterococcus faecalis 3937158; test: microbe, parasite or virus in culture; format: cell-based
Source text: as §1, §2

[4] = test system: bacterial strain not named; test: Raw data of the MIC measurement (absorbance); format: cell-based; conditions: concentration marked (MIC) in raw absorbance data
Description: as §2

sheep erythrocytes = test: Erythrocyte lysis assay; format: cell-based; conditions: 37 °C, 1 hour, A450 nm; for cell lysis (haemolysis): 10^8 cells/ml, vs 4% Triton X-100, triplicates
Description: The protocol of the lysis assay is presented below.
To obtain sheep erythrocytes, 5 ml of fresh blood was centrifuged at 1000 × g for 10 min and washed 3 times with 0.9% NaCl. Cell suspension (final concentration of 10^8 cells/ml) in a volume of 75 µl was added to each well of the 96-well microtiter plate and incubated at 37 °C in the presence of the tested compounds. The range of their concentrations was 100–0.049 µM (diluted in saline solution), which included that of MIC values for the tested strains of the bacteria.
Plates with samples were incubated at 37 °C for 1 hour and then centrifuged at 1000 × g for 10 min to separate the unlysed erythrocytes. Next, the supernatant was transferred to a new plate. The absorbance (A) was measured spectrophotometrically at 450 nm of wavelength. The experiments were performed in triplicates.
The haemolysis percentage was calculated according to the equation presented by Sharma et al.[43]. The percentage of haemolysis = [(A450nm of test compound treated sample-A450nm of buffer treated sample)/(A450nm of 4%TritonX-100 treated samples-A450nm of buffer treated sample)] × 100.

S. aureus MRSA 12673 = test: microbe, parasite or virus in culture; format: cell-based, Staphylococcus aureus; conditions: for MIC: raw MIC
Source text: as §1, §2

S. aureus MRSA N315 = test: microbe, parasite or virus in culture; format: cell-based, Staphylococcus aureus
Source text: as §1, §2

[5] = test system: S. aureus MRSA hetero-VISA 6347; test: microbe, parasite or virus in culture; format: cell-based, Staphylococcus aureus
Source text: as §1, §2

[6] = microbroth dilution, 96-well, resazurin, 37 °C, 24 h, mean ± SD, at least three independent experiments in triplicates
[7] = raw MIC, first block, test a, repetition 1, read-out: MIC1a
[8] = raw MIC, first block, test a, repetition 2, read-out: MIC2a
[9] = raw MIC, first block, test a, repetition 3, read-out: MIC3a
[10] = raw MIC, first block, test b, repetition 1, read-out: MIC1b
[11] = raw MIC, first block, test b, repetition 2, read-out: MIC2b
[12] = raw MIC, first block, test b, repetition 3, read-out: MIC3b
[13] = raw MIC, test a, repetition 1, read-out: MIC1a
[14] = raw MIC, test a, repetition 2, read-out: MIC2a
[15] = raw MIC, test a, repetition 3, read-out: MIC3a
[16] = raw MIC, test b, repetition 1, read-out: MIC1b
[17] = raw MIC, test b, repetition 2, read-out: MIC2b
[18] = raw MIC, test b, repetition 3, read-out: MIC3b
[19] = same test as μM value, mean ± SD

Fl-[Lys^7(PEG4-Van)]TP10 [conjugate IVa]
presence in mouse brain slices (fluorescence) [1]: presence of the conjugate coupled with fluorescein in the brain

CC[C@H](C)[C@H](NC(=O)[C@H](CCCCN)NC(=O)[C@H](CCCCN)NC(=O)[C@H](C)NC(=O)[C@H](CC(C)C)NC(=O)[C@H](C)NC(=O)[C@H](C)NC(=O)[C@H](CC(C)C)NC(=O)[C@H](C)NC(=O)[C@H](CCCCN)NC(=O)[C@H](CC(C)C)NC(=O)[C@H](CC(N)=O)NC(=O)[C@@H](NC(=O)[C@H](CCCCN)NC(=O)CNC(=O)[C@H](CC(C)C)NC(=O)[C@H](CC(C)C)NC(=O)[C@H](Cc1ccc(O)cc1)NC(=O)CNC(=O)[C@H](C)NC(=O)c1cn(CCOCCOCCOCCOCCC(=O)N[C@@]2(C)C[C@H](O[C@H]3[C@H](Oc4c5cc6cc4Oc4ccc(cc4Cl)[C@@H](O)[C@@H](NC(=O)[C@@H](CC(C)C)NC)C(=O)N[C@@H](CC(N)=O)C(=O)N[C@H]6C(=O)N[C@H]4C(=O)N[C@H](C(=O)N[C@H](C(=O)O)c6cc(O)cc(O)c6-c6cc4ccc6O)[C@H](O)c4ccc(c(Cl)c4)O5)O[C@H](CO)[C@@H](O)[C@@H]3O)O[C@@H](C)[C@H]2O)nn1)[C@@H](C)CC)C(=O)N[C@@H](CC(C)C)C(N)=O [conjugate II, Van-PEG4-TP10]
MIC [2, 6]: 25.0 ± 5.1 µM (≈ 98.9 µg/mL) | MIC [2, 7]: 25 µM (≈ 98.9 µg/mL) | MIC [2, 8]: 25 µM (≈ 98.9 µg/mL) | MIC [2, 9]: 12.5 µM (≈ 49.5 µg/mL) | MIC [2, 10]: 25 µM (≈ 98.9 µg/mL) | MIC [2, 11]: 25 µM (≈ 98.9 µg/mL) | MIC [2, 12]: 25 µM (≈ 98.9 µg/mL) | MIC [2, 13]: 98.91 µM (≈ 391 µg/mL) | MIC [2, 14]: 98.91 µM (≈ 391 µg/mL) | MIC [2, 15]: 49.46 µM (≈ 196 µg/mL) | MIC [2, 16]: 98.91 µM (≈ 391 µg/mL) | MIC [2, 17]: 98.91 µM (≈ 391 µg/mL) | MIC [2, 18]: 98.91 µM (≈ 391 µg/mL) | MIC in (μg/ml) [2, 19]: 98.9 ± 20.2 µg/mL (≈ 25 µM) | MIC [3, 6]: 25.0 ± 6.5 µM (≈ 98.9 µg/mL) | MIC [3, 7]: 25 µM (≈ 98.9 µg/mL) | MIC [3, 8]: 25 µM (≈ 98.9 µg/mL) | MIC [3, 9]: 12.5 µM (≈ 49.5 µg/mL) | MIC [3, 10]: 12.5 µM (≈ 49.5 µg/mL) | MIC [3, 11]: 25 µM (≈ 98.9 µg/mL) | MIC [3, 12]: 25 µM (≈ 98.9 µg/mL) | MIC [3, 13]: 98.91 µM (≈ 391 µg/mL) | MIC [3, 14]: 98.91 µM (≈ 391 µg/mL) | MIC [3, 16]: 98.91 µM (≈ 391 µg/mL) | MIC [3, 17]: 98.91 µM (≈ 391 µg/mL) | MIC [3, 18]: 98.91 µM (≈ 391 µg/mL) | MIC in (μg/ml) [3, 19]: 98.9 ± 21.8 µg/mL (≈ 25 µM) | MIC (marked in raw data) [4]: 1,56 µM | cell lysis (haemolysis) (sheep erythrocytes; 12.5 µM): 5% | cell lysis (haemolysis) (sheep erythrocytes; 100 µM): 77% | hemolysis at MIC concentrations (sheep erythrocytes; 6.25–0.78 μM): lack of hemolysis | MIC (S. aureus MRSA 12673; first block, test a, repetition 1, read-out: MIC1a): 1.6 µM (≈ 6.33 µg/mL) | MIC (S. aureus MRSA 12673; first block, test a, repetition 2, read-out: MIC2a): 3.2 µM (≈ 12.7 µg/mL) | MIC (S. aureus MRSA 12673; first block, test a, repetition 3, read-out: MIC3a): 1.6 µM (≈ 6.33 µg/mL) | MIC (S. aureus MRSA 12673; first block, test b, repetition 1, read-out: MIC1b): 1.6 µM (≈ 6.33 µg/mL) | MIC (S. aureus MRSA 12673; first block, test b, repetition 2, read-out: MIC2b): 1.6 µM (≈ 6.33 µg/mL) | MIC (S. aureus MRSA 12673; first block, test b, repetition 3, read-out: MIC3b): 1.6 µM (≈ 6.33 µg/mL) | MIC (S. aureus MRSA 12673; test a, repetition 1, read-out: MIC1a): 6.33 µM (≈ 25 µg/mL) | MIC (S. aureus MRSA 12673; test a, repetition 2, read-out: MIC2a): 12.66 µM (≈ 50.1 µg/mL) | MIC (S. aureus MRSA 12673; test a, repetition 3, read-out: MIC3a): 6.33 µM (≈ 25 µg/mL) | MIC (S. aureus MRSA 12673; test b, repetition 1, read-out: MIC1b): 6.33 µM (≈ 25 µg/mL) | MIC (S. aureus MRSA 12673; test b, repetition 2, read-out: MIC2b): 6.33 µM (≈ 25 µg/mL) | MIC (S. aureus MRSA 12673; test b, repetition 3, read-out: MIC3b): 6.33 µM (≈ 25 µg/mL) | MIC in (μg/ml) (S. aureus MRSA 12673; [19]): 6.3 ± 2.6 µg/mL (≈ 1.59 µM) | MIC (S. aureus MRSA N315; [6]): 1.6 ± 0.8 µM (≈ 6.33 µg/mL) | MIC (S. aureus MRSA N315; [7]): 1.6 µM (≈ 6.33 µg/mL) | MIC (S. aureus MRSA N315; [8]): 3.2 µM (≈ 12.7 µg/mL) | MIC (S. aureus MRSA N315; [9]): 1.6 µM (≈ 6.33 µg/mL) | MIC (S. aureus MRSA N315; [10]): 1.6 µM (≈ 6.33 µg/mL) | MIC (S. aureus MRSA N315; [11]): 3.2 µM (≈ 12.7 µg/mL) | MIC (S. aureus MRSA N315; [12]): 1.6 µM (≈ 6.33 µg/mL) | MIC (S. aureus MRSA N315; [13]): 6.33 µM (≈ 25 µg/mL) | MIC (S. aureus MRSA N315; [14]): 12.66 µM (≈ 50.1 µg/mL) | MIC (S. aureus MRSA N315; [15]): 6.33 µM (≈ 25 µg/mL) | MIC (S. aureus MRSA N315; [16]): 6.33 µM (≈ 25 µg/mL) | MIC (S. aureus MRSA N315; [17]): 6.33 µM (≈ 25 µg/mL) | MIC (S. aureus MRSA N315; [18]): 6.33 µM (≈ 25 µg/mL) | MIC in (μg/ml) (S. aureus MRSA N315; [19]): 6.3 ± 2.6 µg/mL (≈ 1.59 µM) | MIC [5, 6]: 3.1 ± 0.8 µM (≈ 12.3 µg/mL) | MIC [5, 7]: 3.1 µM (≈ 12.3 µg/mL) | MIC [5, 8]: 3.1 µM (≈ 12.3 µg/mL) | MIC [5, 9]: 1.56 µM (≈ 6.17 µg/mL) | MIC [5, 10]: 1.56 µM (≈ 6.17 µg/mL) | MIC [5, 11]: 3.1 µM (≈ 12.3 µg/mL) | MIC [5, 12]: 1.56 µM (≈ 6.17 µg/mL) | MIC [5, 13]: 12.26 µM (≈ 48.5 µg/mL) | MIC [5, 14]: 12.26 µM (≈ 48.5 µg/mL) | MIC [5, 15]: 6.13 µM (≈ 24.3 µg/mL) | MIC [5, 16]: 6.13 µM (≈ 24.3 µg/mL) | MIC [5, 17]: 12.26 µM (≈ 48.5 µg/mL) | MIC [5, 18]: 6.13 µM (≈ 24.3 µg/mL) | MIC in (μg/ml) [5, 19]: 12.3 ± 3.6 µg/mL (≈ 3.11 µM)

From PMC6397271 (Scientific Reports, 2019)
